# Patent US20070191334A1, “Tricyclic imidazopyridines” (ALTANA PHARMA AG, priority 2004, published 2007)
# System: pentagastrin-stimulated acid secretion of the perfused rat stomach
# Test: Secretion-inhibiting action on the perfused rat stomach (pentagastrin-stimulated acid secretion, intraduodenal administration in vivo)
# Details: Table A, dose 1 μmol/kg i.d., anesthetized CD rat
# Text: Testing of the Secretion-Inhibiting Action on the Perfused Rat Stomach
# In Table A which follows, the influence of the compounds of the formula 1 according to the invention on the pentagastrin-stimulated acid secretion of the perfused rat stomach after intraduodenal administration in vivo is shown.
# In Table B which follows, the influence of the compounds of the formula 1-a according to the invention and of their optical antipodes of the formula 1-b on the pentagastrin-stimulated acid secretion of the perfused rat stomach after intraduodenal administration in vivo is shown.
# The abdomen of anesthetized rats (CD rat, female, 200-250 g; 1.5 g/kg i.m. urethane) was opened after tracheotomy by a median upper abdominal incision and a PVC catheter was fixed transorally in the esophagus and another via the pylorus such that the ends of the tubes just projected into the gastric lumen. The catheter leading from the pylorus led outward into the right abdominal wall through a side opening.
# After thorough rinsing (about 50-100 ml), warm (37° C.) physiological NaCl solution was continuously passed through the stomach (0.5 ml/min, pH 6.8-6.9; Braun-Unita I). The pH (pH meter 632, glass electrode EA 147; φ=5 mm, Metrohm) and, by titration with a freshly prepared 0.01N NaOH solution to pH 7 (Dosimat 665 Metrohm), the secreted HCl were determined in the effluent in each case collected at an interval of 15 minutes.
# The gastric secretion was stimulated by continuous infusion of […] (=1.65 ml/h) of i.v. pentagastrin (left femoral vein) about 30 min after the end of the operation (i.e. after determination of 2 preliminary fractions). The substances to be tested were administered intraduodenally in a 2.5 ml/kg liquid volume 60 min after the start of the continuous pentagastrin infusion. The body temperature of the animals was kept at a constant 37.8-38° C. by infrared irradiation and heat pads (automatic, stepless control by means of a rectal temperature sensor).
row,Compound,Inhibition of acid secretion (%)
1,"CC#CC(=O)c1c(C)nc2c3c(c(C(=O)N(C)C)cn12)CCC(c1ccccc1)O3 (centres unmarked) [Example 6, 2-Methyl-3-(1-oxo-2-butynyl)-9-phenyl-7H-8,9-dihydro-pyrano[2,3-c]imidazo[1,2-a]pyridine-6-carboxylic acid dimethylamide]",>40%
2,"CC(=O)c1c(C)nc2c3c(c(C(=O)N(C)C)cn12)CCC(c1ccccc1)O3 (centres unmarked) [Example 9, 3-Acetyl-2-methyl-9-phenyl-7H-8,9-dihydro-pyrano[2,3-c]imidazo-[1,2-a]pyridine-6-carboxylic acid dimethylamide]",>40%
3,"Cc1nc2c3c(c(C(=O)NC4CC4)cn2c1C)CCC(c1ccccc1)O3 (centres unmarked) [Example 13, 2,3-Dimethyl-9-phenyl-7H-8,9-dihydro-pyrano[2,3-c]-imidazo[1,2-a]pyridine-6-carboxylic acid cyclopropylamide]",>70%
4,"Cc1nc2c3c(c(C(=O)N4CCC4)cn2c1C)CCC(c1ccccc1)O3 (centres unmarked) [Example 11, (2,3-Dimethyl-9-phenyl-7H-8,9-dihydro-pyrano[2,3-c]-imidazo[1,2-a]pyridin-6-yl)-azetidin-1-yl methanone]",>70%
5,"COCCNC(=O)c1c(C)nc2c3c(c(C(=O)N(C)C)cn12)CCC(c1ccccc1)O3 (centres unmarked) [Example 4, 2-Methyl-9-phenyl-7H-8,9-dihydro-pyrano[2,3-c]imidazo[1,2-a]pyridine-3,6-dicarboxylic acid 3-[(2-methoxyethyl)amide]6-dimethylamide]",>40%
